One may read the IC50 as the concentration needed to halve the response being measured.

Structures are written as SMILES.

The source of these data is patent US20250340557A1, “PYRIMIDINE DERIVATIVE” (ASKA PHARMACEUTICAL CO., LTD., priority 2022, published 2025).

The first assay addresses T1, human mPGES-1 (Homo sapiens, UniProt O14684).
T1 construct: made in house; host or cells: COS-1 cells (transient transfection; microsomal fraction used as enzyme)
T1 sequence (O14684 1-152): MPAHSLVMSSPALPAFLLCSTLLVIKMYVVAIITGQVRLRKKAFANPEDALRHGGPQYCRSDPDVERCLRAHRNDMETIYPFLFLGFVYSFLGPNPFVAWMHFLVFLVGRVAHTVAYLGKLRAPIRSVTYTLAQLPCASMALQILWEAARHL
The experiment in a line: Test for mPGES-1 inhibitory activity (microsomal enzyme, PGE2 EIA). The settings on record: microsomes from COS-1 cells transfected with human mPGES-1 cDNA; substrate PGH2 1 μM; 4° C., 4 minutes; PGE2 measured by EIA; read-out: h mPGES1 IC50. It counts as biochemical. The procedure, abridged:
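Enzyme source was microsomes from COS-1 cells transiently expressing human mPGES-1, in sodium phosphate pH 7.2 with 2.5 mM GSH, 1 mM EDTA and 2% DMSO final. After a 15 min preincubation with compound at 4 °C, 1 μM PGH2 (final) reacted for 4 min at 4 °C.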
Turning to `O=c1cc(C(F)(F)F)nc(-c2c(C(F)(F)F)ccc(CNC(=O)[C@H]3CC[C@H](OCc4ccccc4Cl)CC3)c2F)[nH]1` [Example 99, trans-4-[(2-chlorobenzyl)oxy]-N-{2-fluoro-3-[6-oxo-4-(trifluoromethyl)-1,6-dihydropyrimidin-2-yl]-4-(trifluoromethyl)benzyl}cyclohexane-1-carboxamide], the IC50 is less than 1 nM.

In the case of `O=C(NCc1ccc(C(F)(F)F)c(-c2nc(C(F)(F)F)cc(=O)[nH]2)c1F)C1CCN(c2ccc(Cl)cn2)CC1` [Example 27, 1-(5-chloropyridin-2-yl)-N-{2-fluoro-3-[6-oxo-4-(trifluoromethyl)-1,6-dihydropyrimidin-2-yl]-4-(trifluoromethyl)benzyl}piperidine-4-carboxamide], the IC50 was less than 1 nM.

For `O=C(NCc1ccc(C(F)(F)F)c(-c2nc(C(F)(F)F)cc(=O)[nH]2)c1F)C1CCN(c2ncc(Cl)cc2F)CC1` [Example 37, 1-(5-chloro-3-fluoropyridin-2-yl)-N-{2-fluoro-3-[6-oxo-4-(trifluoromethyl)-1,6-dihydropyrimidin-2-yl]-4-(trifluoromethyl)benzyl}piperidine-4-carboxamide], the IC50 stood at 18 nM.

For the molecule `O=C(NCc1ccc(C(F)(F)F)c(-c2nc(C(F)(F)F)cc(=O)[nH]2)c1F)C1CCN(c2cccc(OC(F)(F)F)c2)CC1` [Example 74, N-{2-fluoro-3-[6-oxo-4-(trifluoromethyl)-1,6-dihydropyrimidin-2-yl]-4-(trifluoromethyl)benzyl}-1-[3-(trifluoromethoxy)phenyl]piperidine-4-carboxamide], the IC50 is less than 1 nM.

For `O=C(NCc1ccc(C(F)(F)F)c(-c2nc(C(F)(F)F)cc(=O)[nH]2)c1F)c1ccc(-c2ccc3nccn3n2)cc1` [Example 2, N-{2-fluoro-3-[6-oxo-4-(trifluoromethyl)-1,6-dihydropyrimidin-2-yl]-4-(trifluoromethyl)benzyl}-4-(imidazo[1,2-b]pyridazin-6-yl)benzamide], the IC50 was 28.7 nM.

The assay is the same for the next values; noted with them: microsomes of COS-1 cells transfected with human mPGES-1 cDNA; PGH2 1 μM; 4° C., 4 minutes; PGE2 by EIA; read-out: h mPGES1 IC50.
As for `Cc1nc(-c2c(C(F)(F)F)ccc(CNC(=O)[C@H]3C[C@H](OCc4ccc(F)c(F)c4)C3)c2F)[nH]c(=O)c1F` [Example 220, trans-3-[(3,4-difluorobenzyl)oxy]-N-[2-fluoro-3-(5-fluoro-4-methyl-6-oxo-1,6-dihydropyrimidin-2-yl)-4-(trifluoromethyl)benzyl]cyclobutane-1-carboxamide], the 50% inhibitory concentration (IC50) was 15 nM.

For `O=c1cc(C(F)(F)F)nc(-c2c(C(F)(F)F)ccc(CNC(=O)[C@H]3C[C@H](OCc4ccc(F)c(Cl)c4)C3)c2F)[nH]1` [Example 157, trans-3-[(3-chloro-4-fluorobenzyl)oxy]-N-{2-fluoro-3-[6-oxo-4-(trifluoromethyl)-1,6-dihydropyrimidin-2-yl]-4-(trifluoromethyl)benzyl}cyclobutane-1-carboxamide], the IC50 is less than 1 nM.

For the molecule `O=c1cc(C(F)(F)F)nc(-c2c(C(F)(F)F)ccc(CNC(=O)[C@H]3C[C@H](OCc4cc(F)cc(F)c4)C3)c2F)[nH]1` [Example 151, trans-3-[(3,5-difluorobenzyl)oxy]-N-{2-fluoro-3-[6-oxo-4-(trifluoromethyl)-1,6-dihydropyrimidin-2-yl]-4-(trifluoromethyl)benzyl}cyclobutane-1-carboxamide], the IC50 is less than 1 nM.

As for `CCc1nc(-c2c(C(F)(F)F)ccc(CNC(=O)[C@H]3C[C@H](OCc4cccc(F)c4)C3)c2F)[nH]c(=O)c1F` [Example 239, trans-N-[3-(4-ethyl-5-fluoro-6-oxo-1,6-dihydropyrimidin-2-yl)-2-fluoro-4-(trifluoromethyl)benzyl]-3-[(3-fluorobenzyl)oxy]cyclobutane-1-carboxamide], the IC50 was less than 1 nM.

As for `CCc1nc(-c2c(C(F)(F)F)ccc(CNC(=O)[C@H]3C[C@H](OCc4cc(F)cc(F)c4)C3)c2F)[nH]c(=O)c1F` [Example 238, trans-3-[(3,5-difluorobenzyl)oxy]-N-[3-(4-ethyl-5-fluoro-6-oxo-1,6-dihydropyrimidin-2-yl)-2-fluoro-4-(trifluoromethyl)benzyl]cyclobutane-1-carboxamide], the IC50 was less than 1 nM.

For `O=C(NCc1ccc(C(F)(F)F)c(-c2nc(C(F)(F)F)cc(=O)[nH]2)c1F)N1CCC(Oc2ccc(Cl)c(Cl)c2)CC1` [Example 258, 4-(3,4-dichlorophenoxy)-N-{2-fluoro-3-[6-oxo-4-(trifluoromethyl)-1,6-dihydropyrimidin-2-yl]-4-(trifluoromethyl)benzyl}piperidine-1-carboxamide], the IC50 was less than 1 nM.

Regarding `CCc1nc(-c2c(C(F)(F)F)ccc(CNC(=O)[C@H]3C[C@H](OCc4ccccc4Cl)C3)c2F)[nH]c(=O)c1F` [Example 229, trans-3-[(2-chlorobenzyl)oxy]-N-[3-(4-ethyl-5-fluoro-6-oxo-1,6-dihydropyrimidin-2-yl)-2-fluoro-4-(trifluoromethyl)benzyl]cyclobutane-1-carboxamide], the IC50 was less than 1 nM.

For the molecule `CCc1nc(-c2c(C(F)(F)F)ccc(CNC(=O)[C@H]3C[C@H](OCc4ccc(F)cc4F)C3)c2F)[nH]c(=O)c1F` [Example 235, trans-3-[(2,4-difluorobenzyl)oxy]-N-[3-(4-ethyl-5-fluoro-6-oxo-1,6-dihydropyrimidin-2-yl)-2-fluoro-4-(trifluoromethyl)benzyl]cyclobutane-1-carboxamide], the IC50 came out at 1.1 nM.

On to `O=c1cc(-c2ccc(C(F)(F)F)cn2)nc(-c2c(C(F)(F)F)ccc(CNS(=O)(=O)c3ccccc3C(F)(F)F)c2F)[nH]1` [Example 269, N-(2-fluoro-3-{6-oxo-4-[5-(trifluoromethyl)pyridin-2-yl]-1,6-dihydropyrimidin-2-yl}-4-(trifluoromethyl)benzyl)-2-(trifluoromethyl)benzenesulfonamide], for which the IC50 is 7.6 nM.

Regarding `Cc1cc(=O)[nH]c(-c2c(C(F)(F)F)ccc(CNC(=O)[C@H]3C[C@H](OCc4ccccc4Cl)C3)c2F)n1` [Example 178, trans-3-[(2-chlorobenzyl)oxy]-N-[2-fluoro-3-(4-methyl-6-oxo-1,6-dihydropyrimidin-2-yl)-4-(trifluoromethyl)benzyl]cyclobutane-1-carboxamide], the IC50 is less than 1 nM.

As to `O=c1cc(C(F)(F)F)nc(-c2c(C(F)(F)F)ccc(CNC(=O)[C@H]3C[C@H](OCc4ccc(C(F)(F)F)cc4)C3)c2F)[nH]1` [Example 146, trans-N-{2-fluoro-3-[6-oxo-4-(trifluoromethyl)-1,6-dihydropyrimidin-2-yl]-4-(trifluoromethyl)benzyl}-3-{[4-(trifluoromethyl)benzyl]oxy}cyclobutane-1-carboxamide], the IC50 came out at 2.1 nM.

For `Cc1cc(=O)[nH]c(-c2c(C(F)(F)F)ccc(CNC(=O)[C@H]3C[C@H](OCc4ccc(F)cc4Cl)C3)c2F)n1` [Example 190, trans-3-[(2-chloro-4-fluorobenzyl)oxy]-N-[2-fluoro-3-(4-methyl-6-oxo-1,6-dihydropyrimidin-2-yl)-4-(trifluoromethyl)benzyl]cyclobutane-1-carboxamide], the IC50 was less than 1 nM.

Regarding `Cc1cc(=O)[nH]c(-c2c(C(F)(F)F)ccc(CNC(=O)[C@H]3C[C@H](OCc4cc(Cl)ccc4F)C3)c2F)n1` [Example 192, trans-3-[(5-chloro-2-fluorobenzyl)oxy]-N-[2-fluoro-3-(4-methyl-6-oxo-1,6-dihydropyrimidin-2-yl)-4-(trifluoromethyl)benzyl]cyclobutane-1-carboxamide], the IC50 is less than 1 nM.
